# Experimental data as given in PubChem BioAssay (NCI).
#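 All cell lines were grown in 96-well plates and treated with compound for 48 hours. The concentration for full growth arrest is given as TGI.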
# Columns and labels:
# Test in all cases: NCI anticancer screen, dose series, 48 h
# HCT-116 colon = tested on: HCT-116 colon
# UACC-62 melanoma = tested on: UACC-62 melanoma
# SW-620 colon = tested on: SW-620 colon
# SNB-75 CNS = tested on: SNB-75 CNS
# DLD-1 colon = tested on: DLD-1 colon
# OVCAR-3 ovarian = tested on: OVCAR-3 ovarian
# SF-539 CNS = tested on: SF-539 CNS
# SK-MEL-5 melanoma = tested on: SK-MEL-5 melanoma
# U251 CNS = tested on: U251 CNS
# K-562 leukemia = tested on: K-562 leukemia
# DMS 114 small cell lung = tested on: DMS 114 small cell lung
# KM12 colon = tested on: KM12 colon
# SK-MEL-28 melanoma = tested on: SK-MEL-28 melanoma
# EKVX NSCLC = tested on: EKVX NSCLC
# KM20L2 colon = tested on: KM20L2 colon
# RXF 393 renal = tested on: RXF 393 renal
# OVCAR-5 ovarian = tested on: OVCAR-5 ovarian
# SF-295 CNS = tested on: SF-295 CNS
# CAKI-1 renal = tested on: CAKI-1 renal
# LXFL 529 NSCLC = tested on: LXFL 529 NSCLC
# HOP-92 NSCLC = tested on: HOP-92 NSCLC
# NCI-H522 lung = tested on: NCI-H522 lung
# TK-10 renal = tested on: TK-10 renal
# 786-0 renal = tested on: 786-0 renal
# SF-268 CNS = tested on: SF-268 CNS
# NCI-H460 lung = tested on: NCI-H460 lung
# CCRF-CEM leukemia = tested on: CCRF-CEM leukemia
# HT29 colon = tested on: HT29 colon
# A549 NSCLC = tested on: A549 NSCLC
# SK-MEL-2 melanoma = tested on: SK-MEL-2 melanoma
# HOP-62 NSCLC = tested on: HOP-62 NSCLC
# HOP-18 NSCLC = tested on: HOP-18 NSCLC
# HCC-2998 colon = tested on: HCC-2998 colon
# HL-60(TB) leukemia = tested on: HL-60(TB) leukemia
# M19-MEL melanoma = tested on: M19-MEL melanoma
# SNB-19 CNS = tested on: SNB-19 CNS
# UACC-257 melanoma = tested on: UACC-257 melanoma
# OVCAR-4 ovarian = tested on: OVCAR-4 ovarian
# RPMI-8226 leukemia = tested on: RPMI-8226 leukemia
# HCT-15 colon = tested on: HCT-15 colon
# DMS 273 small cell lung = tested on: DMS 273 small cell lung
# LOX IMVI melanoma = tested on: LOX IMVI melanoma
# UO-31 renal = tested on: UO-31 renal
# NCI-H226 lung = tested on: NCI-H226 lung
# SK-OV-3 ovarian = tested on: SK-OV-3 ovarian
# SNB-78 CNS = tested on: SNB-78 CNS
# MALME-3M melanoma = tested on: MALME-3M melanoma
# COLO 205 colon = tested on: COLO 205 colon
# M14 melanoma = tested on: M14 melanoma
# SN12C renal = tested on: SN12C renal
# ACHN renal = tested on: ACHN renal
# IGROV1 ovarian = tested on: IGROV1 ovarian
# SR leukemia = tested on: SR leukemia
# MOLT-4 leukemia = tested on: MOLT-4 leukemia
# OVCAR-8 ovarian = tested on: OVCAR-8 ovarian
# NCI-H23 lung = tested on: NCI-H23 lung
# A498 renal = tested on: A498 renal
structure (smiles),measurement,setting,value
CCCCCCCCCCCCCC1CCC(CC)N1 (stereo not drawn),TGI,HCT-116 colon,29.6 µM
same,TGI,UACC-62 melanoma,17.1 µM
same,TGI,SW-620 colon,29.6 µM
same,TGI,SNB-75 CNS,17.7 µM
same,TGI,DLD-1 colon,28.9 µM
same,TGI,OVCAR-3 ovarian,30.2 µM
same,TGI,SF-539 CNS,32.1 µM
same,TGI,SK-MEL-5 melanoma,31.8 µM
same,TGI,U251 CNS,18 µM
same,TGI,K-562 leukemia,33.3 µM
same,TGI,DMS 114 small cell lung,17.4 µM
same,TGI,KM12 colon,32.4 µM
same,TGI,SK-MEL-28 melanoma,18.6 µM
same,TGI,EKVX NSCLC,31.4 µM
same,TGI,KM20L2 colon,26.2 µM
same,TGI,RXF 393 renal,33 µM
same,TGI,OVCAR-5 ovarian,30.3 µM
same,TGI,SF-295 CNS,32.6 µM
same,TGI,CAKI-1 renal,29.6 µM
same,TGI,LXFL 529 NSCLC,32.6 µM
same,TGI,HOP-92 NSCLC,31.3 µM
same,TGI,NCI-H522 lung,32.6 µM
same,TGI,TK-10 renal,32 µM
same,TGI,786-0 renal,31.5 µM
same,TGI,SF-268 CNS,22.4 µM
same,TGI,NCI-H460 lung,18.5 µM
same,TGI,CCRF-CEM leukemia,18.2 µM
same,TGI,HT29 colon,15.1 µM
same,TGI,A549 NSCLC,36.2 µM
same,TGI,SK-MEL-2 melanoma,36.4 µM
same,TGI,HOP-62 NSCLC,17.9 µM
same,TGI,HOP-18 NSCLC,30.9 µM
same,TGI,HCC-2998 colon,18.7 µM
same,TGI,HL-60(TB) leukemia,21.2 µM
same,TGI,M19-MEL melanoma,10.6 µM
same,TGI,SNB-19 CNS,30.7 µM
same,TGI,UACC-257 melanoma,40.6 µM
same,TGI,OVCAR-4 ovarian,31.2 µM
same,TGI,RPMI-8226 leukemia,36.8 µM
same,TGI,HCT-15 colon,16.5 µM
same,TGI,DMS 273 small cell lung,29.1 µM
same,TGI,LOX IMVI melanoma,32 µM
same,TGI,UO-31 renal,27.4 µM
same,TGI,NCI-H226 lung,30.2 µM
same,TGI,SK-OV-3 ovarian,30.7 µM
same,TGI,SNB-78 CNS,30.4 µM
same,TGI,MALME-3M melanoma,33.8 µM
same,TGI,COLO 205 colon,28.9 µM
same,TGI,M14 melanoma,31.8 µM
same,TGI,SN12C renal,23.4 µM
same,TGI,ACHN renal,17.4 µM
same,TGI,IGROV1 ovarian,36.1 µM
same,TGI,SR leukemia,40.6 µM
same,TGI,MOLT-4 leukemia,30.6 µM
same,TGI,OVCAR-8 ovarian,39.1 µM
same,TGI,NCI-H23 lung,32.9 µM
same,TGI,A498 renal,36.7 µM
CC(C)N(C(=O)C12CC3CC(CC(C3)C1)C2)C(C)C,TGI,HCT-116 colon,> 50 µM
same,TGI,UACC-62 melanoma,> 50 µM
same,TGI,SW-620 colon,> 50 µM
same,TGI,SNB-75 CNS,> 50 µM
same,TGI,DLD-1 colon,> 50 µM
same,TGI,OVCAR-3 ovarian,> 50 µM
same,TGI,SF-539 CNS,> 50 µM
same,TGI,SK-MEL-5 melanoma,> 50 µM
same,TGI,U251 CNS,> 50 µM
same,TGI,K-562 leukemia,> 50 µM
same,TGI,DMS 114 small cell lung,> 50 µM
same,TGI,KM12 colon,> 50 µM
same,TGI,SK-MEL-28 melanoma,> 50 µM
same,TGI,EKVX NSCLC,> 50 µM
same,TGI,KM20L2 colon,> 50 µM
same,TGI,RXF 393 renal,> 50 µM
same,TGI,OVCAR-5 ovarian,> 50 µM
same,TGI,SF-295 CNS,> 50 µM
same,TGI,CAKI-1 renal,> 50 µM
same,TGI,LXFL 529 NSCLC,> 50 µM
same,TGI,HOP-92 NSCLC,> 50 µM
same,TGI,NCI-H522 lung,> 50 µM
same,TGI,TK-10 renal,> 50 µM
same,TGI,786-0 renal,> 50 µM
same,TGI,SF-268 CNS,> 50 µM
same,TGI,NCI-H460 lung,> 50 µM
same,TGI,CCRF-CEM leukemia,> 50 µM
same,TGI,HT29 colon,> 50 µM
same,TGI,A549 NSCLC,> 50 µM
same,TGI,SK-MEL-2 melanoma,> 50 µM
same,TGI,HOP-62 NSCLC,> 50 µM
same,TGI,HOP-18 NSCLC,> 50 µM
same,TGI,HCC-2998 colon,> 50 µM
same,TGI,HL-60(TB) leukemia,> 50 µM
same,TGI,M19-MEL melanoma,> 50 µM
same,TGI,SNB-19 CNS,> 50 µM
same,TGI,UACC-257 melanoma,> 50 µM
same,TGI,OVCAR-4 ovarian,> 50 µM
same,TGI,RPMI-8226 leukemia,> 50 µM
same,TGI,HCT-15 colon,> 50 µM
same,TGI,DMS 273 small cell lung,> 50 µM
same,TGI,LOX IMVI melanoma,> 50 µM
same,TGI,UO-31 renal,> 50 µM
same,TGI,NCI-H226 lung,> 50 µM
same,TGI,SK-OV-3 ovarian,> 50 µM
same,TGI,SNB-78 CNS,> 50 µM
same,TGI,MALME-3M melanoma,> 50 µM
same,TGI,COLO 205 colon,> 50 µM
same,TGI,M14 melanoma,> 50 µM
same,TGI,SN12C renal,> 50 µM
same,TGI,ACHN renal,> 50 µM
same,TGI,IGROV1 ovarian,> 50 µM
same,TGI,MOLT-4 leukemia,> 50 µM
same,TGI,OVCAR-8 ovarian,> 50 µM
same,TGI,NCI-H23 lung,> 50 µM
same,TGI,A498 renal,> 50 µM
